What was measured:
MDPC-23 cells [1] = experiment: Viable cell number (Trypan Blue); assay type: cell-based; settings: 24 h
Protocol: (§1) Immortalized odontoblast-like MDPC-23 cell line, frequently used for the evaluation of cytotoxicity of dental materials, was used to analyse the effect of different DMSO concentrations on pulpal cell viability. The cell culturing and methodology followed that described by Aranha et al. (2011). Briefly, DMEM culture medium with different concentrations of DMSO (0.05, 0.1, 0.3, 0.5 and 1.0 mM) were placed in contact with MDPC-23 cells (5×10^4 cells/cm^2) for 24 h. Pure DMEM was used in the control group. Twelve replicates were prepared in each group, except for flow cytometry analysis (n=8). Viable cell number (Trypan Blue), cell metabolism (production of succinic dehydrogenase enzyme-SDH, MTT assay) and cell death by necrosis (flow cytometry) were evaluated as described before (Ribeiro et al. 2010, Aranha et al. 2011).

MDPC-23 cells [2] = experiment: Cell death by necrosis (flow cytometry); assay type: cell-based; settings: 24 h
Protocol: as §1

MMP-2 [3] = target: T1, MMP-2 (Homo sapiens, UniProt P08253); experiment: EnzChek Gelatinase/Collagenase Assay Kit; assay type: biochemical; settings: 3% DMSO; APMA-activated MMP-2; 24 h incubation
T1 construct: made in house
T1 sequence (P08253 110-660): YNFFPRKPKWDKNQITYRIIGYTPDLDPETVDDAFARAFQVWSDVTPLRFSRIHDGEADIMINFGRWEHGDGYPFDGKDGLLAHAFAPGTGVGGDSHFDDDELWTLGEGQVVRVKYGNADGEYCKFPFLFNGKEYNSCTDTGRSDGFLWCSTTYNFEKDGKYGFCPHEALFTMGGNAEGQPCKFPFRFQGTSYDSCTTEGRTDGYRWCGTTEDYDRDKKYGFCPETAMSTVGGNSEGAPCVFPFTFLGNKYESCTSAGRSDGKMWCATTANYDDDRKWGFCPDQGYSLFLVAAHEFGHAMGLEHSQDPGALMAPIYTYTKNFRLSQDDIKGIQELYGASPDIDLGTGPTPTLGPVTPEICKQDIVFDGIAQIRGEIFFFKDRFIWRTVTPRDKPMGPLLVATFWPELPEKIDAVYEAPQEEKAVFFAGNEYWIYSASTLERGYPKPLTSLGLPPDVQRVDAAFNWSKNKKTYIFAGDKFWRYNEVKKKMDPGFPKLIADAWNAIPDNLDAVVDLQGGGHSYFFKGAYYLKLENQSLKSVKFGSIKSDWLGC
Protocol: (§2) EnzChek Gelatinase/Collagenase Assay Kit (Molecular Probes, Eugene, Oreg., USA) was used to detect the effect of DMSO on the gelatinolytic activities of MMP-2 and -9 according to manufacturer's protocol. Briefly, 3 ng of MMP-2 (purified from cell culture media), 3 ng MMP-9 (purified from cell culture media), and 5 ng of recombinant MMP-9 (Chemicon) were diluted into the reaction buffer (50 mM Tris-HCl, 150 mM NaCl, 5 mM CaCl2, 0.2 mM NaN3, pH 7.6) and incubated with quenched fluorescein-conjugated gelatin (50 μg/ml) and 0%, 0.01%, 0.1%, 0.5%, 1%, 2%, 3%, 4% or 5% of DMSO in a black-walled 96 well microplate at RT in dark. Fluorescent intensity indicating the gelatinolysis was measured at multiple time points with Fluoromax2/Micromax fluorometer (ISA Jobin Yvon-Spex, Edison, N.J., USA). Analyses were performed as quadruplicates. The relative intensities were calculated against 0% of DMSO.

MMP-2 [4] = experiment: EnzChek Gelatinase/Collagenase Assay Kit; assay type: biochemical; settings: 4 to 5% DMSO; non-activated (no APMA) and activated (APMA) MMP-2
Protocol: as §2

[5] = system: dentin collagenolytic enzymes; experiment: Hydroxyproline release from demineralized dentin beams; assay type: biochemical
Protocol: Type I collagen contains about 10 mass % hydroxyproline (HYP), an amino acid almost non-existent in other proteins. Detection of HYP release form demineralized dentin beams was used to evaluate whether DMSO would be effective in inhibiting MMPs in dentin collagen matrix, using a method described in Carrilho et al. 2009. Seventy-six dentin beams (1 mm×1 mm×9 mm) were divided into four groups (n=19 per group) and demineralized. Each beam was individually incubated in a polypropylene tubes with 1 ml of medium containing 50 mmol/L HEPES, 5 mmol/L CaCl2 2H2O, 0.001 mmol/L ZnCl2, 150 mmol/L NaCl, and 3 mmol/L NaN3, pH 7.2, that ensures availability of Zn- and Ca-ions for MMP function. The control samples were incubated in a medium without DMSO: in two groups the beams were incubated with DMSO in medium with 0.001% and 0.01% concentrations. In one group, demineralized dentin beams were immersed in 5% DMSO for 15 minutes and then incubated in a medium without DMSO for the rest of the experiment. Tubes were incubated in a water-shaker bath at 37° C. for a week. Then the medium was completely removed and quantitated for HYP content according to the colorimetric absorbance method described by Jamall et al (1981). Fresh 1 mL of medium was replaced in each tube for additional three weeks of incubation, when the media was removed and analyzed for HYP content. HYP standards were prepared from a 1 mg/mL HYP stock solution in 50% isopropanol. The resulting amount of HYP (mg/mL) was used to estimate the percentage of solubilized (degraded) collagen assuming that 90% of the dry mass of demineralized dentin beams consisted of type I collagen and that 10 mass % of collagen is HYP (Carrilho et al. 2009).

[6] = system: gelatinases MMP-2 and MMP-9; experiment: Gelatin zymography; assay type: biochemical, human
Protocol: Gelatin zymography was performed in 10% SDS-PAGE containing 1 mg/ml labelled gelatin in a usual fashion (Invitrogen, Carlsbad, Calif., USA) (O'Grady et al. 1984). After the electrophoresis, SDS was removed by 2.5% Triton X-100 to renature the gelatinases. Gels were then incubated overnight at 37° C. in 50 mM Tris-HCl buffer (5 mM CaCl2, 1 μM ZnCl2, 0.02% NaN3, pH 7.5) zymography incubation buffer with 0%, 0.1%, 2.5%, 5%, 10% or 20% of DMSO to observe the effect of DMSO concentration on the MMP activity. The degradation of gelatin was visualized under UV light. Gels were also stained with 0.5% Coomassie Blue R-250. The intensities of the bands were quantified by ScionImage software (Scion Corporation, Frederick, Mass., USA). The analysis was done as triplicates, and relative amounts against 0% DMSO were calculated.

MDPC-23 cells [7] = experiment: Cell metabolism (SDH production, MTT assay); assay type: cell-based; settings: 24 h
Protocol: as §1

C[S+](C)[O-] [DMSO, dimethyl sulphoxide] was tested, and the “Cell number (viable cells, Trypan Blue)” value (MDPC-23 cells [1]; 0.05 mM DMSO) was 3.7 (0.9) a, the “Cell number (viable cells, Trypan Blue)” value (MDPC-23 cells [1]; 0.1 mM DMSO) was 4.3 (1.1) a and the “Cell number (viable cells, Trypan Blue)” value (MDPC-23 cells [1]; 0.3 mM DMSO) was 4.1 (1.4) a. The “Cell number (viable cells, Trypan Blue)” value (MDPC-23 cells [1]; 0.5 mM DMSO) was 4.1 (0.9) a, the “Cell number (viable cells, Trypan Blue)” value (MDPC-23 cells [1]; 1.0 mM DMSO) was 4.1 (1.3) a and the “Number of cells vs control” value (MDPC-23 cells [1]; 0.05-1.0 mM DMSO, p>0.05) was “no differences”. For the same molecule, the “Cytotoxicity to odontoblast-like cells” value (MDPC-23 cells [1]; direct contact, 0.05-1.0 mM DMSO) was “not cytotoxic or cytophatic”, the “% Cell Death (necrosis, flow cytometry)” value (MDPC-23 cells [2]; 0.05 mM DMSO) was 1.2 (0.8-1.6) a % and the “% Cell Death (necrosis, flow cytometry)” value (MDPC-23 cells [2]; 0.1 mM DMSO) was 1.3 (0.9-1.6) a %. For the same molecule, the “% Cell Death (necrosis, flow cytometry)” value (MDPC-23 cells [2]; 0.3 mM DMSO) was 1.2 (0.6-1.6) a %, the “% Cell Death (necrosis, flow cytometry)” value (MDPC-23 cells [2]; 0.5 mM DMSO) was 1.3 (0.8-1.5) a % and the “% Cell Death (necrosis, flow cytometry)” value (MDPC-23 cells [2]; 1.0 mM DMSO) was 1.3 (0.8-1.6) a %. For the same molecule, the “Cell death by necrosis vs control” value (MDPC-23 cells [2]; 0.05-1.0 mM DMSO, p>0.05) was “no differences”, the “Inhibition of MMP-2 gelatinolytic activity” value (MMP-2 [3]) was “statistically significant inhibition” and the “Inhibition of MMP-2 gelatinolytic activity” value (MMP-2 [4]) was “theoretical maximum inhibition”. For the same molecule, the “HYP release into the medium” value ([5]; 0.001% DMSO in medium, 4-week incubation) was “significantly decreased”, the “HYP release into the medium” value ([5]; 0.01% DMSO in medium, 4-week incubation) was “significantly decreased” and the “HYP release into the medium” value ([5]; 15 minute immersion in 5% DMSO prior the 4-week incubation) was “significantly decreased”. The “Demineralized dentin collagen degradation by matrix enzymes” value ([5]; DMSO (FIG. 14)) was “significant decrease in collagen degradation”, the “Effect on gelatinase activity (disappearance of bands)” value ([6]; 0.1-20% DMSO in incubation buffer, recombinant human MMP-2 and MMP-9) was “inhibitory activity” and the MMP inhibition ([6]; 5% DMSO (FIG. 12, FIG. 13)) was “up to 75.3%”. The MMP inhibition ([6]; 20% DMSO (FIG. 12, FIG. 13)) was “up to 94.7%”, the “Cell metabolism (SDH production, MTT assay)” value (shortened to “Cell metabolism”) (MDPC-23 cells [7]; 0.05 mM DMSO) was 2.343 (2.287-2.387) ab and the “Cell metabolism” value (MDPC-23 cells [7]; 0.1 mM DMSO) was 2.468 (2.359-2.557) a. For the same molecule, the “Cell metabolism” value (MDPC-23 cells [7]; 0.3 mM DMSO) was 2.484 (2.399-2.520) a, the “Cell metabolism” value (MDPC-23 cells [7]; 0.5 mM DMSO) was 2.478 (2.294-2.542) ab and the “Cell metabolism” value (MDPC-23 cells [7]; 1.0 mM DMSO) was 2.410 (2.119-2.501) ab. The “Production of SDH enzyme vs control” value (MDPC-23 cells [7]; 0.05-1.0 mM DMSO, not concentration-dependent) was “Slight increase”.

Source: patent US20140050674A1, “Method for Improving Penetration or Long Term Adhesion of Compositions to Dental Tissues and Compositions Usable in Said Method” (University of Oulu, priority 2011, published 2014)
